This passage reports IC50 results from patent US20250059220A1, “SUBSTITUTED BENZOTHIOPHENE DERIVATIVES AND METHODS OF USE THEREOF” (Merck Sharp & Dohme LLC, priority 2021, published 2025).

Assay [1] addresses human PTPN1 (1-435) (Homo sapiens (Human), UniProt P18031). Description: Human PTPN1 Biochemical Assay. Particulars: DiFMUP substrate, read-out: PTP1B IC50. An outline of the steps: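 Read-out is DiFMUP hydrolysis fluorescence (360 nm excitation, 460 nm emission) after 1 h at room temperature, following 30 min enzyme–compound preincubation.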
In assay [2] the target is human PTPN2 (1-387) (Homo sapiens (Human), UniProt P17706). Description: Human PTPN2 Biochemical Assay. Conditions: DiFMUP substrate. An outline of the steps: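 Fluorogenic DiFMUP hydrolysis (1 h, room temperature, read ex 360/em 460 nm) after 30 min compound preincubation with PTPN2 residues 1-387, in 50 mM Tris pH 7.4, 150 mM NaCl, 0.01% Tween20, 0.5 mM DTT. Effects scaled between buffer and enzyme controls, 4-parameter fit gives EC50.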

The term pIC50 denotes the negative decadic logarithm of the IC50, by convention in mol/L.

pIC50: −log10 of the molar value.

Chain of human PTPN1 (1-435) (P18031 whole entry, the tested form may be a part): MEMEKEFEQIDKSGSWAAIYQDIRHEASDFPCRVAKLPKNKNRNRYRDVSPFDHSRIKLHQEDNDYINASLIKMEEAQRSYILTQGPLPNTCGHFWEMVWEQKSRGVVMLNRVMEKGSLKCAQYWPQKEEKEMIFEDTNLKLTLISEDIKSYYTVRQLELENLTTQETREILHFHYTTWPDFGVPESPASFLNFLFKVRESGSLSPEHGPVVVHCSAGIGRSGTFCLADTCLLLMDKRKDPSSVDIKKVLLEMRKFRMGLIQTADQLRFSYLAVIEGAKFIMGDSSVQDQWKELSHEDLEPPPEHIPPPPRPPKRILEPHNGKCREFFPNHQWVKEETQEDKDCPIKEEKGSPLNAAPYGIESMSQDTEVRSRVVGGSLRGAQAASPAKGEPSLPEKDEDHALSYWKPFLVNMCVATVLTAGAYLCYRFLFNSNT
Chain of human PTPN2 (1-387) (P17706 other isoform, or with tags, fused parts or gaps): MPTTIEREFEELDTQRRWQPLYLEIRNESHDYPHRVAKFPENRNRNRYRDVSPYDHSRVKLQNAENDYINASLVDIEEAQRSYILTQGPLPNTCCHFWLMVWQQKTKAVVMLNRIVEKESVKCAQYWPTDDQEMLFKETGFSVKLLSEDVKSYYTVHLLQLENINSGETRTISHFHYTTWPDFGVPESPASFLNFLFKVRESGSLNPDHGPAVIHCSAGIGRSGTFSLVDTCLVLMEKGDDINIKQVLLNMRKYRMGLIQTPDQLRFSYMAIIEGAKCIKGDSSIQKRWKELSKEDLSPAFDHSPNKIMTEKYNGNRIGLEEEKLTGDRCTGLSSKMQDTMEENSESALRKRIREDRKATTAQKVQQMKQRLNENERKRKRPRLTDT

In the case of `CC(C)=CCCOc1cc(C(N)=O)cc2c(Br)c(C(F)(F)P(=O)(O)O)sc12` [Compound 307], the pIC50 was 7.24 in assay [1] and 7.19 in assay [2].
On the same counts, the results for `NC(=O)c1cc(OCCCCS(N)(=O)=O)c2sc(C(F)(F)P(=O)(O)O)c(Br)c2c1` [Compound 308] are 7.63 and 7.60.
`NC(=O)c1cc(C#CCCS(N)(=O)=O)c2sc(C(F)(F)P(=O)(O)O)c(Br)c2c1` [Compound 310]: the pIC50 in assay [1] is 7.11; in assay [2], 7.16.
On the same counts, the results for `NC(=O)c1cc(CCCCS(N)(=O)=O)c2sc(C(F)(F)P(=O)(O)O)c(Br)c2c1` [Compound 311] are 6.85 and 6.92.
On the same counts, the results for `NC(=O)c1cc(NCCCS(N)(=O)=O)c2sc(C(F)(F)P(=O)(O)O)c(Br)c2c1` [Compound 312] are 7.10 and 7.15.
For `NC(=O)c1cc(CCc2ccccc2)c2sc(C(F)(F)P(=O)(O)O)c(Br)c2c1` [Compound 313], the pIC50 in assay [1] was 6.84; in assay [2] it was 6.88.
On the same counts, the results for `C[Si](C)(C)CCc1cc(C(N)=O)cc2c(Br)c(C(F)(F)P(=O)(O)O)sc12` [Compound 314] are 7.32 and 7.28.
Regarding `NC(=O)c1cc(OCC2CC2(F)F)c2sc(C(F)(F)P(=O)(O)O)c(Br)c2c1` (stereo not drawn) [Compound 315], the negative-log IC50 (pIC50) was 7.63 in assay [1] and 7.66 in assay [2].
In the case of `NC(=O)c1cc(OCC2CC2(F)F)c2sc(C(F)(F)P(=O)(O)O)c(Br)c2c1` (stereo not drawn) [Compound 316], the pIC50 in assay [1] is 7.17; in assay [2] it was 7.30.
On the same counts, the results for `NC(=O)c1cc(OCCC2CCC2)c2sc(C(F)(F)P(=O)(O)O)c(Br)c2c1` [Compound 317] are 7.16 and 7.16.
On the same counts, the results for `CS(=O)(=O)CCCCOc1cc(C(N)=O)cc2c(Br)c(C(F)(F)P(=O)(O)O)sc12` [Compound 318] are 7.28 and 7.46.
In the same order, the values of `CNC(=O)c1cc(OCCCS(C)(=O)=O)c2sc(C(F)(F)P(=O)(O)O)c(Br)c2c1` [Compound 319] are 8.04 and 8.01.
With `CNC(=O)c1cc(OCCCS(N)(=O)=O)c2sc(C(F)(F)P(=O)(O)O)c(Br)c2c1` [Compound 320], the results for the pIC50 in assay [1] and in assay [2] were 8.12 and 8.17, respectively.
On the same counts, the results for `CNC(=O)c1cc(OCC2CC2(F)F)c2sc(C(F)(F)P(=O)(O)O)c(Br)c2c1` (stereo not drawn) [Compound 321] are 7.60 and 7.62.
In the same order, the values of `CNC(=O)c1cc(OCCC2CC2(F)F)c2sc(C(F)(F)P(=O)(O)O)c(Br)c2c1` (stereo not drawn) [Compound 322] are 7.68 and 7.53.
On the same counts, the results for `CNC(=O)c1cc(OCCCNS(C)(=O)=O)c2sc(C(F)(F)P(=O)(O)O)c(Br)c2c1` [Compound 323] are 7.36 and 7.26.
For `CNC(=O)c1cc(OCCCCS(C)(=O)=O)c2sc(C(F)(F)P(=O)(O)O)c(Br)c2c1` [Compound 324], the negative-log IC50 (pIC50) in assay [1] was 7.39; in assay [2], 7.52.
On the same counts, the results for `CNC(=O)c1cc(OCCC(C)(F)F)c2sc(C(F)(F)P(=O)(O)O)c(Br)c2c1` [Compound 325] are 6.74 and 6.41.
Regarding `CNC(=O)c1cc(OCCCC(C)(F)F)c2sc(C(F)(F)P(=O)(O)O)c(Br)c2c1` [Compound 326], the pIC50 in assay [1] is 8.60; in assay [2], 7.79.
As for `CC(F)(F)CCOc1cc(C(N)=O)cc2c(Br)c(C(F)(F)P(=O)(O)O)sc12` [Compound 327], the figures for the pIC50 in assay [1] and in assay [2] were 6.63 and 6.58, respectively.
On the same counts, the results for `N#CCCNC(=O)c1cc(OCCCS(N)(=O)=O)c2sc(C(F)(F)P(=O)(O)O)c(Br)c2c1` [Compound 328] are 8.10 and 8.11.
On the same counts, the results for `N#CCCNC(=O)c1cc(OCCCC(F)(F)F)c2sc(C(F)(F)P(=O)(O)O)c(Br)c2c1` [Compound 329] are 7.74 and 7.85.
On the same counts, the results for `CS(=O)(=O)CCCOc1cc(C(=O)NCCC#N)cc2c(Br)c(C(F)(F)P(=O)(O)O)sc12` [Compound 330] are 8.04 and 7.98.
On to `NC(=O)c1cc(OCCCC2(O)CC2)c2sc(C(F)(F)P(=O)(O)O)c(Br)c2c1` [Compound 331], for which the pIC50 is 7.54 in assay [1] and 7.62 in assay [2].
In the same order, the values of `CCC(=O)CCCOc1cc(C(N)=O)cc2c(Br)c(C(F)(F)P(=O)(O)O)sc12` [Compound 332] are 7.52 and 7.55.
On the same counts, the results for `CS(=O)(=O)CCCOc1cc(C(N)=O)cc2c(Cl)c(C(F)(F)P(=O)(O)O)sc12` [Compound 333] are 7.43 and 7.38.
On the same counts, the results for `NC(=O)c1cc(OCCCNS(=O)(=O)C(F)(F)F)c2sc(C(F)(F)P(=O)(O)O)c(Br)c2c1` [Compound 334] are 7.18 and 7.11.
Turning to `NC(=O)c1cc(OCCCC2(S(N)(=O)=O)CC2)c2sc(C(F)(F)P(=O)(O)O)c(Br)c2c1` [Compound 335], the pIC50 in assay [1] is 8.27; in assay [2], 8.36.
Turning to `NC(=O)c1cc(OCc2ccc(F)cc2C(F)(F)F)c2sc(C(F)(F)P(=O)(O)O)c(Br)c2c1` [Compound 336], the pIC50 is 6.80 in assay [1] and 7.05 in assay [2].
In the case of `Cc1ccc(COc2cc(C(N)=O)cc3c(Br)c(C(F)(F)P(=O)(O)O)sc23)c(C)c1` [Compound 337], the negative-log IC50 (pIC50) in assay [1] is 6.80; in assay [2], 7.08.
With `NC(=O)c1cc(OCc2ccc(C(F)(F)F)cc2F)c2sc(C(F)(F)P(=O)(O)O)c(Br)c2c1` [Compound 338], the negative-log IC50 (pIC50) in assay [1] is 7.13; in assay [2] it was 7.29.
In the same order, the values of `NC(=O)c1cc(OCc2ccc(OC(F)(F)F)cc2)c2sc(C(F)(F)P(=O)(O)O)c(Br)c2c1` [Compound 339] are 7.34 and 7.61.
Take `NC(=O)c1cc(OCc2ccc(C(F)(F)F)cc2C(F)(F)F)c2sc(C(F)(F)P(=O)(O)O)c(Br)c2c1` [Compound 340]: the pIC50 is 6.55 in assay [1] and 6.94 in assay [2].
On to `N#Cc1cc(Cl)ccc1COc1cc(C(N)=O)cc2c(Br)c(C(F)(F)P(=O)(O)O)sc12` [Compound 341], for which the pIC50 in assay [1] was 7.03; in assay [2] it was 7.33.
On the same counts, the results for `NC(=O)c1cc(OCc2ccc(F)cc2OC(F)F)c2sc(C(F)(F)P(=O)(O)O)c(Br)c2c1` [Compound 342] are 6.88 and 7.12.
In the same order, the values of `NC(=O)c1cc(OCc2ccc(-c3ncccn3)cc2)c2sc(C(F)(F)P(=O)(O)O)c(Br)c2c1` [Compound 343] are 6.89 and 7.71.
As for `Cc1ccc(COc2cc(C(N)=O)cc3c(Br)c(C(F)(F)P(=O)(O)O)sc23)cc1C(F)(F)F` [Compound 344], the figures for the pIC50 in assay [1] and in assay [2] were 6.71 and 6.93, respectively.
On to `NC(=O)c1cc(OCc2ccc(C(F)(F)F)cc2)c2sc(C(F)(F)P(=O)(O)O)c(Br)c2c1` [Compound 345], for which the pIC50 was 7.53 in assay [1] and 7.79 in assay [2].
On the same counts, the results for `NC(=O)c1cc(OCc2ccc(-c3ccccc3)cc2)c2sc(C(F)(F)P(=O)(O)O)c(Br)c2c1` [Compound 346] are 7.79 and 8.60.
On to `NC(=O)c1cc(OCc2ccc(Cl)c(Cl)c2)c2sc(C(F)(F)P(=O)(O)O)c(Br)c2c1` [Compound 347], for which the figures for the pIC50 in assay [1] and in assay [2] were 7.44 and 7.62, respectively.
On the same counts, the results for `COc1ccc(COc2cc(C(N)=O)cc3c(Br)c(C(F)(F)P(=O)(O)O)sc23)c(C(F)(F)F)c1` [Compound 348] are 6.75 and 7.12.
On the same counts, the results for `COc1ccc(COc2cc(C(N)=O)cc3c(Br)c(C(F)(F)P(=O)(O)O)sc23)cc1F` [Compound 349] are 7.57 and 7.66.
Take `NC(=O)c1cc(OCc2ccc(C3CCN(CC(F)(F)F)CC3)cc2)c2sc(C(F)(F)P(=O)(O)O)c(Br)c2c1` [Compound 350]: the results for the negative logarithm of the IC50 (pIC50) in assay [1] and in assay [2] were 6.39 and 6.80, respectively.
In the same order, the values of `NC(=O)c1cc(OCc2ccc(F)c(C(F)(F)F)c2)c2sc(C(F)(F)P(=O)(O)O)c(Br)c2c1` [Compound 351] are 6.76 and 6.99.
With `Cc1cc(C)c(COc2cc(C(N)=O)cc3c(Br)c(C(F)(F)P(=O)(O)O)sc23)c(C)c1` [Compound 352], the pIC50 in assay [1] was 6.16; in assay [2], 6.44.
On to `NC(=O)c1cc(OCc2ccc(-n3cncn3)cc2)c2sc(C(F)(F)P(=O)(O)O)c(Br)c2c1` [Compound 353], for which the negative logarithm of the IC50 (pIC50) in assay [1] is 6.85; in assay [2], 7.41.
On the same counts, the results for `NC(=O)c1cc(OCc2ccc(-c3nccs3)cc2)c2sc(C(F)(F)P(=O)(O)O)c(Br)c2c1` [Compound 354] are 7.16 and 8.02.
As to `NC(=O)c1cc(OCc2ccc(-n3ccnc3)cc2)c2sc(C(F)(F)P(=O)(O)O)c(Br)c2c1` [Compound 355], the figures for the pIC50 in assay [1] and in assay [2] were 6.93 and 7.79, respectively.
Take `NC(=O)c1cc(OCc2ccc(F)c(F)c2)c2sc(C(F)(F)P(=O)(O)O)c(Br)c2c1` [Compound 356]: the pIC50 in assay [1] was 7.69; in assay [2], 7.80.
On the same counts, the results for `NC(=O)c1cc(OCc2ccc(C(F)(F)F)c(F)c2)c2sc(C(F)(F)P(=O)(O)O)c(Br)c2c1` [Compound 357] are 7.66 and 7.86.
As for `CC(C)(C)c1ccc(COc2cc(C(N)=O)cc3c(Br)c(C(F)(F)P(=O)(O)O)sc23)cc1` [Compound 359], the figures for the pIC50 in assay [1] and in assay [2] were 6.96 and 7.45, respectively.
